According to patent US20180243273A1, “Composition for Intravesical Administration for Treating Bladder Pain” (priority 2017, published 2018):

Test: Solubility and stability of API in dependence of surfactant concentration
Type: physicochemical
Conditions: phosphate buffer and 0.50% vitamin E TPGS, compared with other buffer/surfactant combinations at 0.25% and 0.5%
Procedure: In order to prevent too high concentrations of surfactants, which can cause irritant or toxic effects after local administration in the bladder, lower concentrations were evaluated. New batches of API in citrate and phosphate buffer were manufactured. SLS and vitamin E TPGS were chosen for citrate buffer and Labrasol® and vitamin E TPGS for phosphate buffer in a concentration of 0.5% and 0.25%, each. The compositions were stirred overnight prior to filtration and analysis.

CN(C)[C@]1(c2cccc(F)c2)CC[C@]2(CC1)c1[nH]c3ccccc3c1CCN2C(=O)/C=C/c1ccccc1 [API, cis-(E)-4-(3-fluorophenyl)-2′,3′,4′,9′-tetrahydro-N,N-dimethyl-2′-(1-oxo-3-phenyl-2-propenyl)-spiro[cyclohexane-1,1′[1H]-pyrido[3,4-b]indol]-4-amine]
assay and impurities: highest assay and lowest impurities values
